Biological target: SARS-CoV-2 Papain like protease (PLpro) (Severe acute respiratory syndrome coronavirus 2 (2019-nCoV) (SARS-CoV-2), UniProt P0DTD1)
Assay: Papain Like Protease (PLpro) biochemical assay with profluorogenic substrate Z-RLRGG-AMC
Details: SARS-CoV-2 PLpro 6.25 nM, 25 μM Z-RLRGG-AMC substrate, 60 minute reaction; read-out: IC50

Structure (SMILES) | IC50
Cc1ccc(NC(=O)[C@H]2CCCCN2)cc1C(=O)NC(C)c1cc(N)nc2ccccc12 (mixture of isomers) [Example 25, (R)—N-(3-(((RS)-1-(2-aminoquinolin-4-yl)ethyl)carbamoyl)-4-methylphenyl)piperidine-2-carboxamide] | 0.1 µM
Cc1ccc(NC(=O)[C@H]2CCCCN2)cc1C(=O)NC(C)c1cc(-c2ccn[nH]2)cc2ccccc12 (mixture of isomers) [Example 65, (2R)-N-(3-((1-(3-(1H-pyrazol-5-yl)naphthalen-1-yl)ethyl)carbamoyl)-4-methylphenyl)piperidine-2-carboxamide] | 0.021 µM
COCC(OCc1cscn1)c1ccc(C(=O)N[C@H](C)c2cc(-c3cnn(C)c3)nc3ccccc23)c(C)c1 (mixture of isomers) [Example 331, 4-(2-methoxy-1-(thiazol-4-ylmethoxy)ethyl)-2-methyl-N-((R)-1-(2-(1-methyl-1H-pyrazol-4-yl)quinolin-4-yl)ethyl)benzamide] | < 0.001 µM
Cc1ccc(CN)cc1C(=O)N[C@H](C)c1cc(-c2cnn(C)c2)cc2ccccc12 (single isomer, unassigned) [Example 8] | 0.025 µM
Cc1ccc(CN)cc1C(=O)N[C@H](C)c1cc(-c2cnn(C)c2)cc2ccccc12 (single isomer, unassigned) [Example 9] | 3.92 µM
Cc1ccc(NC(=O)[C@H]2CCCCN2)cc1C(=O)N[C@H](C)c1cc(N)nc2ccccc12 (single isomer, unassigned) [Example 27, (R)—N-(3-(((R*)-1-(2-aminoquinolin-4-yl)ethyl)carbamoyl)-4-methylphenyl)piperidine-2-carboxamide] | 0.057 µM
Cc1ccc(NC(=O)[C@H]2CCCCN2)cc1C(=O)N[C@H](C)c1cc(N)nc2ccccc12 (single isomer, unassigned) [Example 28, (R)—N-(3-(((R*)-1-(2-aminoquinolin-4-yl)ethyl)carbamoyl)-4-methylphenyl) piperidine-2-carboxamide] | 5.45 µM
Cc1ccc(NC(=O)[C@H]2CCCCN2)cc1C(=O)N[C@H](C)c1cc(-n2ccnn2)nc2ccccc12 (single isomer, unassigned) [Example 29, (R)—N-(3-(((R*)-1-(2-(1H-1,2,3-triazol-1-yl)quinolin-4-yl)ethyl)carbamoyl)-4-methylphenyl)piperidine-2-carboxamide] | 0.1 µM
Cc1ccc(NC(=O)[C@H]2CCCCN2)cc1C(=O)N[C@H](C)c1cc(-n2ccnn2)nc2ccccc12 (single isomer, unassigned) [Example 30, (R)—N-(3-(((R*)-1-(2-(1H-1,2,3-triazol-1-yl)quinolin-4-yl)ethyl)carbamoyl)-4-methylphenyl)piperidine-2-carboxamide] | 7.73 µM
Cc1ccc(NC(=O)[C@H]2CCCCN2)cc1C(=O)NC(C)c1cc(-c2cn[nH]c2)cc2ccccc12 (single isomer, unassigned) [Example 52, (R)—N-(3-(((R*)-1-(3-(1H-pyrazol-4-yl)naphthalen-1-yl)ethyl)carbamoyl)-4-methylphenyl)piperidine-2-carboxamide] | 0.011 µM
Cc1ccc(NC(=O)[C@H]2CCCCN2)cc1C(=O)NC(C)c1cc(-c2cn[nH]c2)cc2ccccc12 (single isomer, unassigned) [Example 53, (R)—N-(3-(((R*)-1-(3-(1H-pyrazol-4-yl)naphthalen-1-yl)ethyl)carbamoyl)-4-methylphenyl)piperidine-2-carboxamide] | 0.478 µM
Cc1ccc(NC(=O)[C@H]2CCCCN2)cc1C(=O)N[C@H](C)c1cc(-c2cnn(C)c2)cc2ccccc12 (single isomer, unassigned) [Example 66] | 0.008 µM
Cc1ccc(NC(=O)[C@H]2CCCCN2)cc1C(=O)N[C@H](C)c1cc(-c2cnn(C)c2)cc2ccccc12 (single isomer, unassigned) [Example 67] | 0.272 µM
Cc1ccc(NC(=O)[C@H]2CCCCN2)cc1C(=O)N[C@H](C)c1cc(-c2ccn[nH]2)cc2ccccc12 (single isomer, unassigned) [Example 68] | 0.009 µM
Cc1ccc(NC(=O)[C@H]2CCCCN2)cc1C(=O)N[C@H](C)c1cc(-c2ccn[nH]2)cc2ccccc12 (single isomer, unassigned) [Example 69] | 0.908 µM
Cc1ccc(N2C[C@H]3C[C@@H]2CN3C)cc1C(=O)N[C@H](C)c1cc(-c2cnn(C)c2)nc2ccccc12 (single isomer, unassigned) [Example 280, 2-methyl-N—((R)-1-(2-(1-methyl-1H-pyrazol-4-yl)quinolin-4-yl)ethyl)-5-((1R*,4R*)-5-methyl-2,5-diazabicyclo[2.2.1]heptan-2-yl)benzamide] | 0.017 µM
Cc1ccc(N2C[C@H]3C[C@@H]2CN3C)cc1C(=O)N[C@H](C)c1cc(-c2cnn(C)c2)nc2ccccc12 (single isomer, unassigned) [Example 281, 2-methyl-N—((R)-1-(2-(1-methyl-1H-pyrazol-4-yl)quinolin-4-yl)ethyl)-5-((1R*,4R*)-5-methyl-2,5-diazabicyclo[2.2.1]heptan-2-yl)benzamide] | 0.003 µM
COCC(OCc1cscn1)c1ccc(C(=O)NC2(c3cc(-c4cnn(C)c4)nc4ccccc34)CC2)c(C)c1 (single isomer, unassigned) [Example 324] | < 0.001 µM
COCC(OCc1cscn1)c1ccc(C(=O)NC2(c3cc(-c4cnn(C)c4)nc4ccccc34)CC2)c(C)c1 (single isomer, unassigned) [Example 325] | 0.001 µM
COC[C@@H](OCc1cscn1)c1ccc(C(=O)N[C@H](C)c2cc(-c3cnn(C)c3)nc3ccccc23)c(C)c1 (single isomer, unassigned) [Example 332, 4-((R*)-2-methoxy-1-(thiazol-4-ylmethoxy)ethyl)-2-methyl-N-((R)-1-(2-(1-methyl-1H-pyrazol-4-yl)quinolin-4-yl)ethyl)benzamide] | 0.002 µM
COC[C@H](OCc1cscn1)c1ccc(C(=O)N[C@H](C)c2cc(-c3cnn(C)c3)nc3ccccc23)c(C)c1 (single isomer, unassigned) [Example 333, 4-((R*)-2-methoxy-1-(thiazol-4-ylmethoxy)ethyl)-2-methyl-N-((R)-1-(2-(1-methyl-1H-pyrazol-4-yl)quinolin-4-yl)ethyl)benzamide] | < 0.001 µM
COC[C@@H](OCc1cscn1)c1ccc(C(=O)NC2(c3cc(-c4cnn(C)c4)cc4ncccc34)CC2)c(C)c1 (single isomer, unassigned) [Example 334] | < 0.001 µM
COC[C@H](OCc1cscn1)c1ccc(C(=O)NC2(c3cc(-c4cnn(C)c4)cc4ncccc34)CC2)c(C)c1 (single isomer, unassigned) [Example 335] | < 0.001 µM
COC[C@@H](OCc1cscn1)c1ccc(C(=O)NC2(c3cc(-c4cc(C(=O)N(C)C)n[nH]4)nc4ccccc34)CC2)c(C)c1 (single isomer, unassigned) [Example 336] | < 0.001 µM
COC[C@H](OCc1cscn1)c1ccc(C(=O)NC2(c3cc(-c4cc(C(=O)N(C)C)n[nH]4)nc4ccccc34)CC2)c(C)c1 (single isomer, unassigned) [Example 337] | < 0.001 µM
COC[C@H](OCc1cocn1)c1ccc(C(=O)NC2(c3cc(-c4cnn(C)c4)nc4ccccc34)CC2)c(C)c1 (single isomer, unassigned) [Example 338] | 0.003 µM
COC[C@@H](OCc1cocn1)c1ccc(C(=O)NC2(c3cc(-c4cnn(C)c4)nc4ccccc34)CC2)c(C)c1 (single isomer, unassigned) [Example 339] | < 0.001 µM

— patent US20240245673A1, “Papain-like protease (PLpro) inhibitors” (Pfizer Inc., priority 2022, published 2024)
